Source: patent US8309546B2, “Morpholinopurine derivatives” (Daiichi Sankyo Company, Limited, priority 2008, dated 2012)
Where “and” joins values, the source holds several entries; their conditions need not be identical. Equal values may be shown once.

Legend:
[1] = molecular target: PI3Kα (Homo sapiens, UniProt P42336); assay: PI3K kinase activity inhibition assay; assay type: biochemical; details: Kinase-Glo Plus ATP detection, read-out: IC50 against PI3K
Summary of the method: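 PI3Kα (50 nM solution) was reacted with 30 μM ATP and 45 μM PIP2 solutions, each in HEPES pH 7.4 with MgCl2 and DTT, for 2 h at room temperature. Remaining ATP was measured by Kinase-Glo Plus luminescence, and inhibition was derived from ATP consumed. IC50 was taken from curve fitting of the serial dilutions.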

[2] = system: human endometrial cancer cell strain AN3CA; assay: Cell growth inhibition test (MTT), AN3CA; assay type: cell-based; details: AN3-CA, 72 h, 3 days culture, read-out: concentration exhibiting anti-cell effect (GI50)
Summary of the method: (§1)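 MTT read-out at 540 nm after 4 h formazan formation gives living cell count following 3-day compound exposure at 37° C, 5% CO2. Seeding: 5000 AN3CA, 1000 IGROV1, 5000 HT29 cells/well. Growth rate T/C % = 100×[(B−C)/(A−C)], with C taken before dosing; GI50 = concentration giving 50% growth.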

[3] = system: human ovary cancer cell strain IGROV1; assay: Cell growth inhibition test (MTT), IGROV1; assay type: cell-based; details: IGROV-1, 72 h, IGROV1, 3 days culture, read-out: concentration exhibiting anti-cell effect (GI50)
Summary of the method: as §1

[4] = system: human colon cancer cell strain HT29; assay: Cell growth inhibition test (MTT), HT29; assay type: cell-based; details: HT-29, 72 h, HT29, 3 days culture, read-out: concentration exhibiting anti-cell effect (GI50)
Summary of the method: as §1

[5] = system: Akt (threonine 308) phosphorylation in AN3CA tumor; assay: Akt phosphorylation inhibition assay in xenograft; assay type: in vivo, female nude mouse; details: Mus musculus, AN3-CA, oral, 6 hr after dosing
Method: (§2) A tumor section was prepared from a human endometrial cancer cell strain AN3CA tumor mass formed in a female nude mouse as subcutaneously transplanted tumor and a xenograft model was prepared by subcutaneously transplanting the tumor to a female nude mouse. The test compound at a predetermined concentration was orally administered. After a predetermined time, the anesthetized mouse was exsanguinated to death, and a tumor mass was isolated. The tumor mass was crushed using a lysis buffer containing inhibitors of proteases and dephosphorylating enzymes (Cell Signaling Technology, Inc.) and the supernatant was separated by centrifugation to obtain a tumor extract. The protein content of the tumor extract was measured using DC Protein Assay Kit (Bio-Rad Laboratories, Inc.) and phosphorylation conditions of Akt (threonine 308) and S6 (serine 235 and 236) were analyzed by a usual technique of western blotting using tumor extracts containing the same amount of protein. The primary antibody and the secondary antibody used for detecting each molecule were rabbit anti-phospho-Akt(T308) antibody and HRP-labeled goat anti-rabbit IgG antibody or mouse anti-phospho-S6(S235/236) antibody and HRP-labeled sheep anti-mouse IgG antibody.
(§3) The signal intensity detected using an image analyzer Typhoon 9400 (GE Healthcare) was quantified, and the phosphorylation inhibition rate (%) was calculated by the following formula. Phosphorylation inhibitory activity (%) of Akt and S6 after treatment with test compound=100−100×(B/A) A: Signal intensity derived from phosphorylated protein in tumor mass isolated from mouse untreated with test compound B: Signal intensity derived from phosphorylated protein in tumor mass isolated from mouse treated with test compound

[6] = system: S6 (serine 235 and 236) phosphorylation in AN3CA tumor; assay: S6 phosphorylation inhibition assay in xenograft; assay type: in vivo, female nude mouse; details: Mus musculus, AN3-CA, oral, 6 hr after dosing
Method: as §2, §3

[7] = molecular target: T1, human mTOR (His-tagged mTOR (1362C)) (Homo sapiens, UniProt P42345); assay: mTOR kinase activity inhibition assay; assay type: biochemical; details: HTRF, read-out: IC50 against mTOR
T1 construct: the 1362 to 2549 amino acid portion on the C terminus side of human mTOR; His tag (N); made in house
Summary of the method: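 Crude His-tagged mTOR (aa 1362–2549) from stable HEK293 cells, with 8 μg/ml biotinylated peptide in 50 mM HEPES pH 7.5, 20 mM MnCl2; compound diluted in 20 μM ATP solution, reaction 3 h at room temperature. Phospho-peptide detected by HTRF (anti-phospho-S6K Thr389 cryptate/streptavidin-XL665, overnight at 4°C), 665/620 nm ratio. IC50 derived from curve fit of % inhibition.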

[8] = system: human endometrial cancer cell strain AN3CA tumor; assay: Anti-tumor effect assay using mouse subcutaneous transplantation model; assay type: in vivo, female nude mouse; details: AN3-CA, oral, tumor weight vs negative control, read-out: Anti-tumor effect (tumor growth inhibition rate)
Method: A tumor section was prepared from a human endometrial cancer cell strain AN3CA tumor mass formed in a female nude mouse as a subcutaneously transplanted tumor and then a xenograft model was prepared by transplanting the tumor section into female nude mouse. Tumor-bearing mice having an estimated tumor volume (long diameter×short diameter×short diameter/2) of 80 to 200 mm^3 were divided, so that there should be no significant difference in the mean estimated tumor volume and body weight as compared with the negative control group to perform a test. The test compound was orally administered at a predetermined dose for 8 consecutive days. On the following day of the final administration day, tumor-bearing mice were anesthetized and exsanguinated to death and a tumor mass was isolated to measure tumor weight (the compounds of Examples 1, 3, 6, 8, 11, 12, and 14). Furthermore, as a similar test, the test compound was orally administered for 5 consecutive days, animals were sacrificed on the final administration day, and tumor weight was measured (the compounds of Examples 60, 63, 75, 77, 79, 89, 92, 107, 108, 109, 110, and 127).
In all the tests, anti-tumor effect was calculated by the following formula. {1−(tumor weight in compound treatment group/tumor weight in negative control group)}×100

T1 sequence (P42345 1362-2549): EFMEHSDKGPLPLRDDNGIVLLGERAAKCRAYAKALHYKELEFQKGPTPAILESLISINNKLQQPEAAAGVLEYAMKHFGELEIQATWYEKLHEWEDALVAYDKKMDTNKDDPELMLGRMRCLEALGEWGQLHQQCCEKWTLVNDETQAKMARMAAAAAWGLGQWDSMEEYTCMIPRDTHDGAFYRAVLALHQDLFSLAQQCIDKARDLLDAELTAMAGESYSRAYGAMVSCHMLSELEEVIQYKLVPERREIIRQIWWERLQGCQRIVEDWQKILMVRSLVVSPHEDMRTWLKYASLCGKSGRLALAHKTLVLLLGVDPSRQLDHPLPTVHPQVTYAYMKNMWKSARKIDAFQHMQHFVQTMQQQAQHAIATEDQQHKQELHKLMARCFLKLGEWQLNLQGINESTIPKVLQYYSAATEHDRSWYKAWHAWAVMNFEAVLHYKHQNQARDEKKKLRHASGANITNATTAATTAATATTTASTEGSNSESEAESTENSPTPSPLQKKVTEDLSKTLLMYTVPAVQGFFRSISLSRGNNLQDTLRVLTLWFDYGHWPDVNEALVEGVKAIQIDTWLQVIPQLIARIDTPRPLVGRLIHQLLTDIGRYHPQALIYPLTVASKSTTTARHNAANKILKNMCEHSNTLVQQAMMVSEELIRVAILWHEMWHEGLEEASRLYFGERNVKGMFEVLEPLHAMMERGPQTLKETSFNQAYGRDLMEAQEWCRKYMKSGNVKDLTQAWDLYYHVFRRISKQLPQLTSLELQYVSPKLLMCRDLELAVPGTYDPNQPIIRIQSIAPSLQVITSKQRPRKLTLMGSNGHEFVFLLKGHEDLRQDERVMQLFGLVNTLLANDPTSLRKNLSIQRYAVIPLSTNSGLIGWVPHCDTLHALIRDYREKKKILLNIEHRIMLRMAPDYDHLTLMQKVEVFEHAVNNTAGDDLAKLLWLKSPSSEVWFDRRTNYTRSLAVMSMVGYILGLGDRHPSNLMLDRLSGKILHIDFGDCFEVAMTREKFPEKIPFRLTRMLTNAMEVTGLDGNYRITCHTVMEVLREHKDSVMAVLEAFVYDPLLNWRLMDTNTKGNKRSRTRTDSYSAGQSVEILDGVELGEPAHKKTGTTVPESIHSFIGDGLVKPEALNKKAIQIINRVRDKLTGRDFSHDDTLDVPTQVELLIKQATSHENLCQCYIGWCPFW
PI3Kα, sequence (P42336 whole entry, species assumed): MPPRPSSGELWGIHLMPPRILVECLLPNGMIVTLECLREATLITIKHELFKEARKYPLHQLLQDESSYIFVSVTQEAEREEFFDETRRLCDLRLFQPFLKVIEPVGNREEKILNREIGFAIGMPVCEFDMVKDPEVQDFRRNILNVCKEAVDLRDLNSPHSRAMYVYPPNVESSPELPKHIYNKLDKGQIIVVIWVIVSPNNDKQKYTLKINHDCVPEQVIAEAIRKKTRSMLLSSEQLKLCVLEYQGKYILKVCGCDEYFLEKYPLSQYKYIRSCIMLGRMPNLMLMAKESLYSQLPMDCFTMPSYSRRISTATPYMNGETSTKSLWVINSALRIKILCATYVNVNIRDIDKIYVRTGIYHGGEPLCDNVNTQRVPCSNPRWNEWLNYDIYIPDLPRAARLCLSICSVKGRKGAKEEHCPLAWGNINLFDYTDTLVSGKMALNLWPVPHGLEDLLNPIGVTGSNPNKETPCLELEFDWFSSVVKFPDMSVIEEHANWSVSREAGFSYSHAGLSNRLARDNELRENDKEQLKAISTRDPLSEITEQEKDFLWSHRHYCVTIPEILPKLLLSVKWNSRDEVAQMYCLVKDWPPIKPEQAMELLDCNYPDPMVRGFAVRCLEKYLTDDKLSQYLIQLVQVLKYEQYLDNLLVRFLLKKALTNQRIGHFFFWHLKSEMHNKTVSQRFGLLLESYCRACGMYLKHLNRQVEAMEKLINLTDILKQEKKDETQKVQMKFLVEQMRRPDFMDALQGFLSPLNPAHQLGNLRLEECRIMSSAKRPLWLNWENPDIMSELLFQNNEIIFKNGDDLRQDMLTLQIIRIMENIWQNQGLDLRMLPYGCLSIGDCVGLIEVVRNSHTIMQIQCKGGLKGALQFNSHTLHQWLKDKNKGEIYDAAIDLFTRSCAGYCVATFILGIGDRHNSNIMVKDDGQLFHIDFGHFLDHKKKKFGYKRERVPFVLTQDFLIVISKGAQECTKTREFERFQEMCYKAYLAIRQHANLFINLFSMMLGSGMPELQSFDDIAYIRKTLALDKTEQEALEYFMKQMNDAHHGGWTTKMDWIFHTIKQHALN
PI3Kα, sequence (P27986 whole entry partner, species assumed): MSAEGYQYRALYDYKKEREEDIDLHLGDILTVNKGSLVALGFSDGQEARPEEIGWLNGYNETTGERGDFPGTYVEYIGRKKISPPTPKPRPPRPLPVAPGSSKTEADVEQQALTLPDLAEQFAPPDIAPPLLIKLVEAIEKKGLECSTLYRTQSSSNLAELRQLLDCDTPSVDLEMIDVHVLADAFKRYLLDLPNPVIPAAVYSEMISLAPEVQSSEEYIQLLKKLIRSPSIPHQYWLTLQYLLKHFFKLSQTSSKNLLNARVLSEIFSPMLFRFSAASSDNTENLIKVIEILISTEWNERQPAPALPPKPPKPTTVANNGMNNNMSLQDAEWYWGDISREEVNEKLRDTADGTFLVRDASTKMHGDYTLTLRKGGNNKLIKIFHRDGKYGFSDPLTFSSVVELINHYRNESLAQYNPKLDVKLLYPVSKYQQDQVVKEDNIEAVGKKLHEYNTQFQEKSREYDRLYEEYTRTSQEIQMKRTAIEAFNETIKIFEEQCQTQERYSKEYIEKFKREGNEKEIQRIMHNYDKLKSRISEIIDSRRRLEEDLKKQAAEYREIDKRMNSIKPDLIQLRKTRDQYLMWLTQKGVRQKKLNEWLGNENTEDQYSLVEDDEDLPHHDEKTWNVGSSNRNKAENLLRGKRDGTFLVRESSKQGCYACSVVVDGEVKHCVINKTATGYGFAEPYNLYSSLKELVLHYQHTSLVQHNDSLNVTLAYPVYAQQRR

Row | Structure (SMILES) | IC50 [1] | GI50 [2] | GI50 [3] | GI50 [4] | inhibition at 10 mg/kg [5] | inhibition at 10 mg/kg [6] | IC50 [7] | inhibition in vivo at 10 mg/kg/day ([8]; 10 mg/kg/day, 8 or 5 consecutive days depending on compound) | inhibition in vivo at 20 mg/kg/day ([8]; 20 mg/kg/day, consecutive days)
1 | CC(C)Cn1c(N2CCN(C(=O)C[C@H](C)O)CC2)nc2c(N3CCOC[C@@H]3C)nc(-c3cnc(N)nc3)nc21 [Example 133, (2S)-4-(4-[2-(2-Aminopyrimidin-5-yl)-9-isobutyl-6-[(3S)-3-methylmorpholin-4-yl]-9H-purin-8-yl]piperazin-1-yl)-4-oxobutan-2-ol] | < 0.01 µM | ≤ 5 µM | ≤ 5 µM | ≤ 5 µM | > 60% | > 90% |  |  | 
2 | C[C@H]1CN(c2nc3c(N4CCOCC4)nc(-c4cnc(N)nc4)nc3n2CC2CC2)CCN1 [Example 91, 5-{9-(Cyclopropylmethyl)-8-[(3S)-3-methylpiperazin-1-yl]-6-morpholin-4-yl-9H-purin-2-yl}pyrimidin-2-amine] | < 0.01 µM | ≤ 5 µM | ≤ 5 µM | ≤ 5 µM |  |  | 0.01 to 0.03 µM |  | 
3 | CC(C)n1c(N2CCN(S(C)(=O)=O)CC2)nc2c(N3CCOCC3)nc(-c3cnc(N)nc3)nc21 [Example 46, 5-{9-Isopropyl-8-[4-(methylsulfonyl)piperazin-1-yl]-6-morpholin-4-yl-9H-purin-2-yl}pyrimidin-2-amine] | 0.02 to 0.05 µM | ≤ 5 µM | ≤ 5 µM | ≤ 5 µM |  |  | 0.03 to 0.1 µM |  | 
4 | C[C@@H]1CN(c2nc3c(N4CCOCC4)nc(-c4cnc(N)nc4)nc3n2CC2CC2)C[C@H](C)N1 [Example 12, 5-{9-(Cyclopropylmethyl)-8-(cis-3,5-dimethylpiperazin-1-yl)-6-morpholin-4-yl-9H-purin-2-yl}pyrimidin-2-amine] | 0.01 to 0.02 µM and 0.02 to 0.05 µM | ≤ 5 µM | ≤ 5 µM | ≤ 5 µM |  |  |  | 61% | 71%
5 | CC(=O)N1CCN(c2nc3c(N4CCOCC4)nc(-c4cnc(N)nc4)nc3n2CC(F)(F)F)CC1(C)C [Example 122, 5-[8-(4-Acetyl-3,3-dimethylpiperazin-1-yl)-6-morpholin-4-yl-9-(2,2,2-trifluoroethyl)-9H-purin-2-yl]pyrimidin-2-amine] | < 0.01 µM | ≤ 5 µM | ≤ 5 µM | ≤ 5 µM |  |  | < 0.01 µM |  | 
